# PubChem BioAssay AID334 (DTP/NCI, 2004)
# Several values for one entry are separate records, joined by “and”; a condition that tells them apart may be missing. Equal entries are not always repeated. Inconclusive results and toxic doses are left out.
# Tested on: CD2F1 mice, intracerebral P388 leukemia, median survival T/C%
# Experiment: NCI In Vivo Anticancer Drug Screen. Data for tumor model P388 Leukemia (intracerebral) in CD2F1 (CDF1) mice
# Conditions: endpoint: median survival time, higher = longer survival
# Protocol: The antitumor activity of compounds was measured in mice bearing transplantable tumors. Survival or tumor size were measured and the results are expressed as the measurement made in the treated group (T) divided by the measurement made in the vehicle treated control group (C). The tumor model used in this assay is P388 Leukemia (intracerebral) in CD2F1 (CDF1) mice
# [1] = dose: 12.5 mg/kg/injection, schedule: Q01DX009 (ip), vehicle: saline with Tween-80
# [2] = dose: 25.0 mg/kg/injection, schedule: Q01DX009 (ip), vehicle: saline
# [3] = dose: 50.0 mg/kg/injection, schedule: Q01DX009 (ip), vehicle: saline
# [4] = dose: 100.0 mg/kg/injection, schedule: Q01DX009 (ip), vehicle: saline
smiles,measurement,setting,value
CCC1=C(c2ccc(OC)cc2)CCC(C(=O)O)C1C (centres undefined),T/C,"dose: 4.0 mg/kg/injection, schedule: Q01DX005 (ip), vehicle: saline",99 % of control and 104 % of control
same,T/C,"dose: 8.0 mg/kg/injection, schedule: Q01DX005 (ip), vehicle: saline",95 % of control and 100 % of control
same,T/C,"dose: 16.0 mg/kg/injection, schedule: Q01DX005 (ip), vehicle: saline",90 % of control and 98 % of control
same,T/C,"dose: 32.0 mg/kg/injection, schedule: Q01DX005 (ip), vehicle: saline",96 % of control and 102 % of control
CC1(C)N=C(N)N=C(N)N1c1ccc(CCCCc2ccc(S(=O)(=O)F)cc2Cl)c(Cl)c1,T/C,[1],97 % of control
same,T/C,"dose: 50.0 mg/kg/injection, schedule: Q01DX009 (ip), vehicle: saline with Tween-80",116 % of control
same,T/C,"dose: 100.0 mg/kg/injection, schedule: Q01DX009 (ip), vehicle: saline with Tween-80",96 % of control
same,T/C,"dose: 133.0 mg/kg/injection, schedule: Q04DX003 (ip), vehicle: saline with Tween-80",102 % of control
same,T/C,"dose: 200.0 mg/kg/injection, schedule: Q04DX003 (ip), vehicle: saline with Tween-80",108 % of control
same,T/C,"dose: 300.0 mg/kg/injection, schedule: Q04DX003 (ip), vehicle: saline with Tween-80",95 % of control
CC(C)(C)N1CC1CNC(=O)C(=O)NCC1CN1C(C)(C)C (centres undefined),T/C,"dose: 3.0 mg/kg/injection, schedule: Q01DX009 (ip), vehicle: saline with Tween-80",101 % of control
same,T/C,"dose: 3.12 mg/kg/injection, schedule: Q01DX009 (ip), vehicle: saline with Tween-80",104 % of control and 107 % of control
same,T/C,"dose: 6.0 mg/kg/injection, schedule: Q01DX009 (ip), vehicle: saline with Tween-80",121 % of control
same,T/C,"dose: 6.25 mg/kg/injection, schedule: Q01DX009 (ip), vehicle: saline with Tween-80",117 % of control and 111 % of control
same,T/C,[1],177 % of control
same,T/C,"dose: 25.0 mg/kg/injection, schedule: Q01DX009 (ip), vehicle: saline with Tween-80",105 % of control
N[C@H](C(=O)O)[C@@H]1CC(Cl)=NO1,T/C,"dose: 4.0 mg/kg/injection, schedule: Q01DX009 (ip), vehicle: saline",168 % of control
same,T/C,"dose: 8.0 mg/kg/injection, schedule: Q01DX009 (ip), vehicle: saline",114 % of control
NC(=O)c1csc(C2OC(CO)C(O)C2O)n1 (centres undefined),T/C,"dose: 12.5 mg/kg/injection, schedule: Q01DX009 (ip), vehicle: saline",105 % of control
same,T/C,[2],121 % of control
same,T/C,[3],110 % of control
same,T/C,[4],119 % of control
same,T/C,"dose: 200.0 mg/kg/injection, schedule: Q01DX009 (ip), vehicle: saline",121 % of control
same,T/C,"dose: 800.0 mg/kg/injection, schedule: Q01DX009 (ip), vehicle: saline",93 % of control
Cc1cc(OCc2nc(N)nc(N)c2-c2ccc(Cl)c(Cl)c2)ccc1NS(=O)(=O)c1cccc(S(=O)(=O)F)c1,T/C,"dose: 117.0 mg/kg/injection, schedule: Q04DX003 (ip), vehicle: saline",100 % of control
same,T/C,"dose: 176.0 mg/kg/injection, schedule: Q04DX003 (ip), vehicle: saline",100 % of control
same,T/C,"dose: 264.0 mg/kg/injection, schedule: Q04DX003 (ip), vehicle: saline",111 % of control
same,T/C,"dose: 400.0 mg/kg/injection, schedule: Q04DX003 (ip), vehicle: saline",111 % of control
NC(=S)N/N=C/c1ccc(O)cn1,T/C,"dose: 12.0 mg/kg/injection, schedule: Q01DX005 (ip), vehicle: saline",99 % of control and 100 % of control
same,T/C,"dose: 24.0 mg/kg/injection, schedule: Q01DX005 (ip), vehicle: saline",96 % of control and 97 % of control
same,T/C,"dose: 48.0 mg/kg/injection, schedule: Q01DX005 (ip), vehicle: saline",101 % of control and 106 % of control
same,T/C,"dose: 96.0 mg/kg/injection, schedule: Q01DX005 (ip), vehicle: saline",93 % of control and 103 % of control
CC1(C)N=C(N)N=C(N)N1c1ccc(OCCCNC(=O)Nc2cccc(S(=O)(=O)F)c2)c(Cl)c1,T/C,[2],105 % of control
same,T/C,[3],111 % of control
same,T/C,[4],100 % of control
COc1ccc2cc1Oc1ccc(cc1)C[C@H]1c3cc(c(OC)cc3CCN1C)Oc1c(OC)c(OC)cc3c1[C@H](C2)N(C)CC3,T/C,"dose: 50.0 mg/kg/injection, schedule: Q01DX005 (ip), vehicle: Klucel (hydroxypropylcellulose) (HPC)",105 % of control and 106 % of control
same,T/C,"dose: 100.0 mg/kg/injection, schedule: Q01DX005 (ip), vehicle: Klucel (hydroxypropylcellulose) (HPC)",102 % of control and 105 % of control
same,T/C,"dose: 200.0 mg/kg/injection, schedule: Q01DX005 (ip), vehicle: Klucel (hydroxypropylcellulose) (HPC)",99 % of control and 108 % of control
same,T/C,"dose: 400.0 mg/kg/injection, schedule: Q01DX005 (ip), vehicle: Klucel (hydroxypropylcellulose) (HPC)",97 % of control and 104 % of control
